The source of these data is US9073975B2, “Cyclic peptides, their preparation and their use as inhibitors of the platelet adhesion” (SANOFI, priority 2010, dated 2015).

The target of this assay is T1, recombinant human vWF-A1 domain (Homo sapiens, UniProt P07359).
T1 construct: whole blood drawn from voluntary donors; made in house; host or cells: E. coli (vWF-A1); washed platelets from human donor blood (GPIb, endogenous)
Briefly: Static human platelet adhesion to recombinant human vWF-A1 domain. Type of assay: cell-based. To be noted: washed calcein AM labeled human platelets, static conditions, 1.5 h adhesion; read-out: Activity (IC50 for inhibition of the binding of platelets to vWF A1 domain). How it is done:
The activity of compounds of the formula I can be shown by procedures known in the art, for example by determining their inhibition of the binding of platelets to vWF A1 domain in an appropriate assay. To this end, assay plates can be coated with vWF-A1 domain. […] Then fluorescence-labeled thrombocytes are added and incubated for 90 minutes. In a complex washing procedure all non-bound thrombocytes are removed and the plates are measured, for example in a laser-based reader Acumen Explorer or a bulk reader like Spectramax. […] To assess the effect of compounds on the interaction of the GPIb complex on platelets with vWF, an assay system was used measuring binding of human platelets to recombinant human vWF-A1 domain under static conditions in the presence and absence of the compounds. […] Platelet rich plasma was carefully removed, transferred to a fresh container and spun down for 15 min at 120 g. Platelet rich plasma was carefully transferred again to fresh containers, PGE1 (0.5 μg/ml, Sigma) was added and the suspension was allowed to rest for 5 min. This was followed by another centrifugation step for 15 min at 360 g. The supernatant was discarded and the cell pellets were carefully resuspended in tyrode buffer (NaCl, 137 mM (Sigma S-3014); KCl, 2.7 mM (Sigma P-9541); NaHCO3,12 mM ([…] 31437); NaH2PO4×2H2O, 0.36 mM (Merck 6345); […] After 5 min of resting the suspension was spun down for 15 min at 300 g. The supernatant was discarded and the pellets were carefully resuspended in TBS buffer (Tris-HCl, 50 mM (Fluka 93371); NaCl, 120 mM (Sigma S-3014); KCl, 2.7 mM (Sigma P-9541); CaCl2, 0.05 mM (Sigma C-3306); MgCl2×6 H2O, 2 mM (Sigma M-2670); […] The platelet count was adjusted to 2×10^5 cells/μl, and the suspensions from individual donors were pooled at this stage. The platelets were allowed to rest for 30 min at room temperature before calcein AM (2.5 μM per 2×10^5 cells/μl (Molecular Probes C-3099)) was added. This was followed by 15 min incubation in the dark. Cells were diluted to 5×10^4 cells/μl and ReoPro (3 μg/ml (Centocor B. V., Leiden, N L)) was added, followed by a 10 min incubation period in the dark before adding the platelets to the assay plates. 96 well plates (Greiner hb, black, clear bottom, F, 655097) were coated with human recombinant vWF-A1 domain (1.5 μg/well, AA 475-706, expressed in E. coli) in Tris buffer (pH 7.4; Tris-HCl, 25 mM; NaCl, 150 mM) and incubated for 1 h at room temperature. After washing the wells 3× with TBS, blocking buffer (TBS with 5% BSA) was added followed by an incubation for 1 h. The wells were washed again 3× with TBS before 200 μl TBS were added to each well, preventing them from drying out. TBS was flicked out and serial dilutions of the test compound were added. The washed and calcein AM labeled thrombocytes were added to the wells (2.5×10^6 cells/well). Following an adhesion period of 1.5 h in the dark the wells were washed 3× with TBS. Measurement of fluorescence per well was performed in a SpectraMax M5 reader (Molecular Devices). From the raw data % inhibition and IC50 values were calculated.

Starred links: 1 amine or outer side, 2 acyl side, 3 side chain; linkers in the order of their positions; H or OH if unused. Non-standard residues stand in square brackets, D forms with d. Residues, ends and D or L forms follow the SMILES beside them. NH(CH2)9CO = O=C(CCCCCCCCCN[*:1])[*:2]; tBuAla = CC(C)(C)C[C@H](N)C(=O)O; Chg = N[C@H](C(=O)O)C1CCCCC1; Ac6c = NC1(C(=O)O)CCCCC1; Nle = CCCC[C@H](N)C(=O)O; Orn = NCCC[C@H](N)C(=O)O; Abu = CC[C@H](N)C(=O)O; Dap = NC[C@H](N)C(=O)O; Aib = CC(C)(N)C(=O)O; Ahp = NCCCCCCC(=O)O; Ava = NCCCCC(=O)O; GABA = NCCCC(=O)O

T1 sequence (P07359 17-652): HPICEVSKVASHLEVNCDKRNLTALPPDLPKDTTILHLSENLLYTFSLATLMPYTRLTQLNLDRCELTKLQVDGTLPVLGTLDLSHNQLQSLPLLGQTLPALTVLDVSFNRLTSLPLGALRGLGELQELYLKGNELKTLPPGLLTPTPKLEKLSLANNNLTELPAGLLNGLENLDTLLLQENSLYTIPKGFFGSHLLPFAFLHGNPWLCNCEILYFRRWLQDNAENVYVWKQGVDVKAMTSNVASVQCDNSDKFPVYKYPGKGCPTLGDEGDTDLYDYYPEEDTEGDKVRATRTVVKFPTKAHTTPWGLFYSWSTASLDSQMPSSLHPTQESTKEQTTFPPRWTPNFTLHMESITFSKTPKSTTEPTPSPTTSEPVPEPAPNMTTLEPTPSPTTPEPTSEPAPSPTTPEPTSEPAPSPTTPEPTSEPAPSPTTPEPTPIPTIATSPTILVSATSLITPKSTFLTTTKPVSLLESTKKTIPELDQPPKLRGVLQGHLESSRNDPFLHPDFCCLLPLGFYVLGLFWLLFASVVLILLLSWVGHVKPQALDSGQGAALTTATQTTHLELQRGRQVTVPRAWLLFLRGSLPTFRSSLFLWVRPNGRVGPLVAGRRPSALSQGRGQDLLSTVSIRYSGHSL
T1 sequence (P13224 26-206 partner): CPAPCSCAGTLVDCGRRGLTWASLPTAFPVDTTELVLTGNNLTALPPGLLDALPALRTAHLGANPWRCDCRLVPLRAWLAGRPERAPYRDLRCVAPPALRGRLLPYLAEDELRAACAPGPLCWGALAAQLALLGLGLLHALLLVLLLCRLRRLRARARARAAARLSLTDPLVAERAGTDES
T1 sequence (P14770 17-177 partner): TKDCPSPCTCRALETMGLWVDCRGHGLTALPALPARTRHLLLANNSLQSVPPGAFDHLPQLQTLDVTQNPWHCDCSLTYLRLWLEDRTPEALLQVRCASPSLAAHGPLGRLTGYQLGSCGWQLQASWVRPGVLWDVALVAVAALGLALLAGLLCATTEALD

Usually IC50 stands for the concentration at which inhibition is half-maximal. Consider `CSCC[C@@H]1NC(=O)[C@H](CCCNC(=N)N)NC(=O)[C@H](CCC(=O)O)NC(=O)[C@H]([C@@H](C)O)NC(=O)CCCCCCNC(=O)[C@H](CC(C)C)NC(=O)[C@H](CC(N)=O)NC(=O)[C@@H](Cc2c[nH]cn2)NC(=O)[C@H](CC(C)C)NC(=O)[C@H](C)NC1=O` [Example 33, Cyclo[Leu-D-His-Asn-Leu-NH—(CH2)6—CO-Thr-Glu-Arg-Met-Ala]] (cyclo(AL[dH]NL[Ahp]TERM)), for which the IC50 was 1000 to 10000 nM. For `CSCC[C@@H]1NC(=O)[C@H](CCCNC(=N)N)NC(=O)[C@H](CCC(=O)O)NC(=O)[C@H]([C@@H](C)O)NC(=O)CCCCCCNC(=O)[C@H](CC(C)C)NC(=O)[C@H](CC(N)=O)NC(=O)[C@H](CCCN)NC(=O)[C@H](CC(C)C)NC(=O)[C@H](C)NC1=O` [Example 34, Cyclo[Leu-Orn-Asn-Leu-NH—(CH2)6—CO-Thr-Glu-Arg-Met-Ala]] (cyclo(AL[Orn]NL[Ahp]TERM)), the IC50 is 1000 to 10000 nM. Then `CSCC[C@@H]1NC(=O)[C@H](CCCNC(=N)N)NC(=O)[C@H](CCC(=O)O)NC(=O)[C@H]([C@@H](C)O)NC(=O)CCCCCCNC(=O)[C@H](CC(C)C)NC(=O)[C@H](CC(N)=O)NC(=O)[C@H](Cc2c[nH]cn2)NC(=O)[C@H](CC(C)(C)C)NC(=O)[C@H](C)NC1=O` [Example 36, Cyclo[Npg-His-Asn-Leu-NH—(CH2)6—CO-Thr-Glu-Arg-Met-Ala]] (cyclo(A[tBuAla]HNL[Ahp]TERM)), with less than 1000 nM; and `CSCC[C@@H]1NC(=O)[C@H](CCCNC(=N)N)NC(=O)[C@H](CCC(=O)O)NC(=O)[C@H]([C@@H](C)O)NC(=O)CCCCCCNC(=O)[C@H](CC(C)C)NC(=O)[C@H](CC(N)=O)NC(=O)[C@H](Cc2c[nH]cn2)NC(=O)C2(CCCCC2)NC(=O)[C@H](C)NC1=O` [Example 37, Cyclo[Ac6-His-Asn-Leu-NH—(CH2)6—CO-Thr-Glu-Arg-Met-Ala]] (cyclo(A[Ac6c]HNL[Ahp]TERM)), with 1000 to 10000 nM. Then `CC(C)C[C@@H]1NC(=O)[C@H](C)NC(=O)[C@H](CC(C)C)NC(=O)[C@H](CCCNC(=N)N)NC(=O)[C@H](CCC(=O)O)NC(=O)[C@H]([C@@H](C)O)NC(=O)CCCCCCNC(=O)[C@H](CC(C)C)NC(=O)[C@H](CC(N)=O)NC(=O)[C@H](Cc2c[nH]cn2)NC1=O` [Example 38, Cyclo[Leu-His-Asn-Leu-NH—(CH2)6—CO-Thr-Glu-Arg-Leu-Ala]] (cyclo(ALHNL[Ahp]TERL)), with less than 1000 nM. Next, `CC(C)C[C@@H]1NC(=O)[C@H](C)NC(=O)[C@H](C2CCCCC2)NC(=O)[C@H](CCCNC(=N)N)NC(=O)[C@H](CCC(=O)O)NC(=O)[C@H]([C@@H](C)O)NC(=O)CCCCCCNC(=O)[C@H](CC(C)C)NC(=O)[C@H](CC(N)=O)NC(=O)[C@H](Cc2c[nH]cn2)NC1=O` [Example 39, Cyclo[Leu-His-Asn-Leu-NH—(CH2)6—CO-Thr-Glu-Arg-Chg-Ala]] (cyclo(ALHNL[Ahp]TER[Chg])): 1000 to 10000 nM; `CC(C)C[C@@H]1NC(=O)[C@H](C)NC(=O)[C@H](C)NC(=O)[C@H](CCCNC(=N)N)NC(=O)[C@H](CCC(=O)O)NC(=O)[C@H]([C@@H](C)O)NC(=O)CCCCCCNC(=O)[C@H](CC(C)C)NC(=O)[C@H](CC(N)=O)NC(=O)[C@H](Cc2c[nH]cn2)NC1=O` [Example 40, Cyclo[Leu-His-Asn-Leu-NH—(CH2)6—CO-Thr-Glu-Arg-Ala-Ala]] (cyclo(AALHNL[Ahp]TER)): less than 1000 nM; `CC(C)C[C@@H]1NC(=O)[C@H](C)NC(=O)[C@H](CCC(N)=O)NC(=O)[C@H](CCCNC(=N)N)NC(=O)[C@H](CCC(=O)O)NC(=O)[C@H]([C@@H](C)O)NC(=O)CCCCCCNC(=O)[C@H](CC(C)C)NC(=O)[C@H](CC(N)=O)NC(=O)[C@H](Cc2c[nH]cn2)NC1=O` [Example 41, Cyclo[Leu-His-Asn-Leu-NH—(CH2)6—CO-Thr-Glu-Arg-Gln-Ala]] (cyclo(ALHNL[Ahp]TERQ)): less than 1000 nM.

In the case of `CC[C@@H]1NC(=O)[C@H](CCCNC(=N)N)NC(=O)[C@H](CCC(=O)O)NC(=O)[C@H]([C@@H](C)O)NC(=O)CCCCCCNC(=O)[C@H](CC(C)C)NC(=O)[C@H](CC(N)=O)NC(=O)[C@H](Cc2c[nH]cn2)NC(=O)[C@H](CC(C)C)NC(=O)[C@H](C)NC1=O` [Example 42, Cyclo[Leu-His-Asn-Leu-NH—(CH2)6—CO-Thr-Glu-Arg-Abu-Ala]] (cyclo(ALHNL[Ahp]TER[Abu])), the IC50 was less than 1000 nM. Next, `CCCC[C@@H]1NC(=O)[C@H](CCCNC(=N)N)NC(=O)[C@H](CCC(=O)O)NC(=O)[C@H]([C@@H](C)O)NC(=O)CCCCCCNC(=O)[C@H](CC(C)C)NC(=O)[C@H](CC(N)=O)NC(=O)[C@H](Cc2c[nH]cn2)NC(=O)[C@H](CC(C)C)NC(=O)[C@H](C)NC1=O` [Example 43, Cyclo[Leu-His-Asn-Leu-NH—(CH2)6—CO-Thr-Glu-Arg-Nle-Ala]] (cyclo(ALHNL[Ahp]TER[Nle])): less than 1000 nM; `COC[C@@H]1NC(=O)[C@H](CCCNC(=N)N)NC(=O)[C@H](CCC(=O)O)NC(=O)[C@H]([C@@H](C)O)NC(=O)CCCCCCNC(=O)[C@H](CC(C)C)NC(=O)[C@H](CC(N)=O)NC(=O)[C@H](Cc2c[nH]cn2)NC(=O)[C@H](CC(C)C)NC(=O)[C@H](C)NC1=O` [Example 45, Cyclo[Leu-His-Asn-Leu-NH—(CH2)6—CO-Thr-Glu-Arg-Amp-Ala]] (cyclo(ALHNL[Ahp]TERS(Me))): less than 1000 nM; `CSCC[C@@H]1NC(=O)[C@H](CCCNC(=N)N)NC(=O)[C@H](CCC(=O)O)NC(=O)[C@H]([C@@H](C)O)NC(=O)CCCCNC(=O)CNC(=O)[C@H](CC(C)C)NC(=O)[C@H](CC(N)=O)NC(=O)[C@H](Cc2c[nH]cn2)NC(=O)[C@H](CC(C)C)NC(=O)[C@H](C)NC1=O` [Example 46, Cyclo[Leu-His-Asn-Leu-Gly-NH—(CH2)4—CO-Thr-Glu-Arg-Met-Ala]] (cyclo(ALHNLG[Ava]TERM)): 1000 to 10000 nM. Next, `CSCC[C@@H]1NC(=O)[C@H](CCCNC(=N)N)NC(=O)[C@H](CCC(=O)O)NC(=O)[C@H]([C@@H](C)O)NC(=O)CCCCCCCCCNC(=O)[C@H](CC(C)C)NC(=O)[C@H](CC(N)=O)NC(=O)[C@H](Cc2c[nH]cn2)NC(=O)[C@H](CC(C)C)NC(=O)[C@H](C)NC1=O` [Example 47, Cyclo[Leu-His-Asn-Leu-NH—(CH2)9—CO-Thr-Glu-Arg-Met-Ala]] (cyclo(ALHNL[NH(CH2)9CO]TERM)): 1000 to 10000 nM.

For `CSCC[C@@H]1NC(=O)[C@H](CCCNC(=N)N)NC(=O)[C@H](CCC(=O)O)NC(=O)[C@H]([C@@H](C)O)NC(=O)CCCNC(=O)[C@H](CN)NC(=O)[C@H](CC(C)C)NC(=O)[C@H](CC(N)=O)NC(=O)[C@H](Cc2c[nH]cn2)NC(=O)[C@H](CC(C)C)NC(=O)[C@H](C)NC1=O` [Example 49, Cyclo[Leu-His-Asn-Leu-Dpr-NH—(CH2)3—CO-Thr-Glu-Arg-Met-Ala]] (cyclo(ALHNL[Dap][GABA]TERM)), the IC50 is 1000 to 10000 nM. Take `CSCC[C@@H]1NC(=O)[C@H](CCCNC(=N)N)NC(=O)[C@H](CCC(=O)O)NC(=O)[C@H]([C@@H](C)O)NC(=O)[C@H](CC(N)=O)NC(=O)CCCNC(=O)[C@H](CC(C)C)NC(=O)[C@H](CC(N)=O)NC(=O)[C@H](Cc2c[nH]cn2)NC(=O)[C@H](CC(C)C)NC(=O)[C@H](C)NC1=O` [Example 50, Cyclo[Leu-His-Asn-Leu-NH—(CH2)3—CO-Asn-Thr-Glu-Arg-Met-Ala]] (cyclo(ALHNL[GABA]NTERM)): the IC50 was 1000 to 10000 nM. Then `CSCC[C@@H]1NC(=O)[C@H](CCCNC(=N)N)NC(=O)[C@H](CCC(=O)O)NC(=O)[C@H]([C@@H](C)O)NC(=O)C(C)(C)NC(=O)CCCNC(=O)[C@H](CC(C)C)NC(=O)[C@H](CC(N)=O)NC(=O)[C@H](Cc2c[nH]cn2)NC(=O)[C@H](CC(C)C)NC(=O)[C@H](C)NC1=O` [Example 53, Cyclo[Leu-His-Asn-Leu-NH—(CH2)3—CO-Aib-Thr-Glu-Arg-Met-Ala]] (cyclo(ALHNL[GABA][Aib]TERM)), with 1000 to 10000 nM.
